# Results: publication PMC7997032, “Organic synthesis and anti-influenza A virus activity of cyclobakuchiols A, B, C, and D” (PLoS ONE, 2021)
# Several values for one entry are separate records, joined by “and”; a condition that tells them apart may be missing. Equal entries are not always repeated.
# How the values were obtained:
# A/PR/8/34 virus [1] = type: cell-based; conditions: 12.5 μM, 24h WB
# A/PR/8/34 virus [2] = assay: Immunofluorescence staining of viral NP in influenza A virus-infected MDCK cells; conditions: for NP/DAPI (%) ave: average of 9 wells
# Method: (§1) MDCK cells were seeded on a 96-well plate at 1 × 10^4 cells/well. […] Each mixture was added to the cells at 37°C in the presence of 5% CO2. […] After influenza A viral infection for 24 h, the cells were fixed with 4% paraformaldehyde in phosphate-buffered saline (PBS) for 30 min at 4°C and subsequently permeabilized by the addition of 0.3% Triton X-100 for 20 min at 25°C. A mouse primary antibody was used to detect the NP of A/PR/8/34 or A/WSN/33 viruses (FluA-NP 4F1; SouthernBiotech, AL, USA). Alexa Fluor488-conjugated goat anti-mouse IgG (H + L) antibody (Thermo Fisher Scientific) was used as the secondary antibody. Cell nuclei were then stained using diamidino-2-phenylindole (DAPI) (Thermo Fisher Scientific). Wells were photographed using a fluorescence microscope (BIOREVO BZ-X700; Keyence, Osaka, Japan). The proportion of influenza A NP-positive cells per DAPI-positive cells was calculated based on measurements recorded using BZ-X Analyzer software (Keyence).
# [3] = tested on: canine interferon-β (Ifn-β); assay: RT-qPCR of Ifn-β mRNA in MDCK cells with or without A/PR/8/34 virus; type: cell-based; conditions: 12.5uM, relative to virus - DMSO; for MDCK IFN-b mRNA, ave: ave of #1-3 exp; for MDCK IFN-b mRNA, individual replicates: replicates 1-3 of #1, #2, #3 exp, listed as Cyclobakuchiol B
# A/WSN/33 virus [4] = assay: Immunofluorescence staining of viral NP in influenza A virus-infected MDCK cells; conditions: WSN
# Method: as §1
# A/WSN/33 virus [5] = assay: Influenza A viral growth assay (viral titer of culture media); type: cell-based, influenza A H1N1 virus; conditions: A/WSN/33 (WSN), 12.5uM, average of #1-3 exp (n=9)
# Nrf2 = Nrf2 reporter assay (dual luciferase system) in MDCK cells; type: cell-based, canine
# Method: An Nrf2 reporter assay based on the dual luciferase system was performed as previously described. The plasmid pNQO1-ARE (antioxidant response element)-Fluc, provided by Yamamoto M., expressed a Firefly luciferase gene driven by Nrf2 activation, while the plasmid pRL-TK-Rluc vector (Promega, CA, USA) expressed a Renilla luciferase gene driven by the herpes simplex viral thymidine kinase promoter as an internal control. MDCK cells were seeded in a 24-well plate at 1 × 10^5 cells/well and transfected with pNQO1-ARE-luc (0.25 μg) and pRL-TK-Rluc (0.25 μg). At 24 h post-transfection, the cells were treated with 12.5 μM cyclobakuchiols A–D in the infection medium at 37°C under 5% CO2. DMSO (0.125%) and 12.5 μM 1 were used as negative and positive controls, respectively. Total RNA was extracted from the MDCK cell lysates after 24 h of incubation. The levels of Firefly and Renilla luciferase mRNAs were analyzed by RT-qPCR and normalized to that of β-actin mRNA.
# A/PR/8/34 virus [6] = assay: RT-qPCR of viral mRNAs (NP, NS1, PA, PB1, PB2, M2) in infected MDCK cells; type: cell-based, influenza A H1N1 virus
# [7] = tested on: NAD(P)H quinone oxidoreductase 1 (Nqo1); assay: RT-qPCR of Nqo1 mRNA in MDCK cells with or without A/PR/8/34 virus; type: cell-based, canine; conditions: for NQO1 Canis lupus mRNA, ave / NQO1 Canis lupus mRNA, individual replicates: 12.5uM, MDCK, relative to virus - DMSO; for NQO1 Canis lupus mRNA, ave: ave of #1-3 exp; for NQO1 Canis lupus mRNA, individual replicates: replicates 1-3 of #1, #2, #3 exp, listed as Cyclobakuchiol B
# A/PR/8/34 virus [8] = assay: Influenza A viral growth assay (viral titer of culture media); type: cell-based, influenza A H1N1 virus; parameters: viral titer of culture media, individual replicate / viral titer of culture media, ave: unit not given here; conditions: A/PR/8/34 (PR8), 12.5uM, average of #1-3 exp (n=9)
# [9] = MDCK cells, PR8 virus, relative to DMSO (about 1), ave of #1-3 exp (9 values)
# [10] = MDCK cells, PR8 virus, relative to DMSO, replicates 1-3 of #1, #2, #3 exp, listed as Cyclobakuchiol B
structure (smiles),measurement,setting,value
C=C[C@]1(C)CCC(C(=C)C)C(c2ccc(O)cc2)C1 (stereo in doubt) [cyclobakuchiol B],NP/b-actin ave,A/PR/8/34 virus [1]; average of 3 experiments,0.58
same,NS1/b-actin ave,A/PR/8/34 virus [1]; average of 3 experiments,0.5288
same,"NP mean (western blot signal intensity, ImageJ)",A/PR/8/34 virus [1]; single experiment,62.433 and 67.763 and 96.513
same,NP/b-actin,A/PR/8/34 virus [1]; single experiment,0.7275 and 0.4304 and 0.582
same,NS1/b-actin,A/PR/8/34 virus [1]; single experiment,0.4321 and 0.5028 and 0.6516
same,"NS1 mean (western blot signal intensity, ImageJ)",A/PR/8/34 virus [1]; single experiment,72.927 and 75.866 and 57.321
same,percentage of influenza A NP-positive cells relative to DMSO,"A/PR/8/34 virus [2]; A/PR/8/34, 3.1 μM, 24 h, Fig 4B",significantly reduced
same,NP/DAPI (%) ave,"A/PR/8/34 virus [2]; A/PR/8/34, 3.13 uM",5.089%
same,NP/DAPI (%) ave,"A/PR/8/34 virus [2]; A/PR/8/34, 6.25 uM",1.925%
same,NP/DAPI (%) ave,"A/PR/8/34 virus [2]; A/PR/8/34, 12.5 uM",1.075%
same,NP/DAPI (%) ave,"A/PR/8/34 virus [2]; A/PR/8/34, 25 uM",0.927%
same,IC50,"A/PR/8/34 virus [2]; Influenza A virus, PR/8, MDCK, read-out: half maximal (50%) inhibitory concentration (IC50)",2400 ± 600 nM
same,"MDCK IFN-b mRNA, ave",[3]; virus +,5.577
same,"MDCK IFN-b mRNA, individual replicates",[3]; virus +,1.734 and 10.09 and 8.268 and 12.9454 and 4.2 and 4.194 and 4.358 and 1.919 and 2.486
same,"MDCK IFN-b mRNA, ave",[3]; virus -,2.313
same,"MDCK IFN-b mRNA, individual replicates",[3]; virus -,0.5929 and 0.6599 and 7.314 and 8.038 and 1.086 and 0.609 and 1.136 and 0.5738 and 0.8068
same,NP/DAPI (%) ave,"A/WSN/33 virus [4]; 3.13uM, ave of 9 values (3 exp)",30.5534%
same,NP/DAPI (%) ave,"A/WSN/33 virus [4]; 6.25uM, ave of 9 values (3 exp)",28.157%
same,NP/DAPI (%) ave,"A/WSN/33 virus [4]; 12.5uM, ave of 9 values (3 exp)",30.5618%
same,NP/DAPI (%) ave,"A/WSN/33 virus [4]; 25uM, ave of 9 values (3 exp)",32.0683%
same,NP/DAPI (%) ave,"A/WSN/33 virus [4]; ave summary, 3.13%",30.5534%
same,NP/DAPI (%) ave,"A/WSN/33 virus [4]; ave summary, 6.25%",28.157%
same,NP/DAPI (%) ave,"A/WSN/33 virus [4]; ave summary, 12.50%",30.5618%
same,NP/DAPI (%) ave,"A/WSN/33 virus [4]; ave summary, 25%",32.0683%
same,"viral titer of culture media, ave",A/WSN/33 virus [5]; 12h,12633.3
same,"viral titer of culture media, ave",A/WSN/33 virus [5]; 24h,25455556
same,"viral titer of culture media, ave",A/WSN/33 virus [5]; 48h,275666667
same,"viral titer of culture media, ave",A/WSN/33 virus [5]; 72h,208055556
same,Nrf2 activation (reporter assay) in contrast to DMSO,"Nrf2; 12.5 μM, 24 h, MDCK cells",induced
same,"pNQO1-ARE-Luc NRF2 reporter assay, ave","Nrf2; 12.5uM, relative to DMSO trans+, ave of #1-3 exp",1.319
same,"pNQO1-ARE-Luc NRF2 reporter assay, individual replicates","Nrf2; 12.5uM, relative to DMSO trans+, two values each of #1, #2, #3 exp, listed as Cyclobakuchiol B",1.305 and 0.9752 and 1.512 and 1.4747 and 1.32 and 1.325
same,"PR8 NP gene expression qPCR, ave","A/PR/8/34 virus [6]; MDCK PR8, NP mRNA, relative (DMSO about 1), average of #1-3 exp (n=9)",0.03219
same,"PR8 NP gene expression qPCR, individual replicate","A/PR/8/34 virus [6]; MDCK PR8, NP mRNA, relative (DMSO about 1), replicates of #1-3 exp, listed as Cyclobakuchiol B",0.01121 and 0.02587 and 0.02406 and 0.03207 and 0.05973 and 0.04959 and 0.06567 and 0.01197 and 0.009584
same,"PR8 NS1 gene expression qPCR, ave","A/PR/8/34 virus [6]; MDCK PR8, NS1 mRNA, relative (DMSO about 1), average of #1-3 exp (n=9)",0.02013
same,"PR8 NS1 gene expression qPCR, individual replicate","A/PR/8/34 virus [6]; MDCK PR8, NS1 mRNA, relative (DMSO about 1), replicates of #1-3 exp, listed as Cyclobakuchiol B",0.008731 and 0.02017 and 0.01871 and 0.02102 and 0.03896 and 0.02064 and 0.02879 and 0.01388 and 0.01026
same,"PR8 PA gene expression qPCR, ave","A/PR/8/34 virus [6]; MDCK PR8, PA mRNA, relative (DMSO about 1), average of #1-3 exp (n=9)",0.02293
same,"PR8 PA gene expression qPCR, individual replicate","A/PR/8/34 virus [6]; MDCK PR8, PA mRNA, relative (DMSO about 1), replicates of #1-3 exp, listed as Cyclobakuchiol B",0.01293 and 0.01727 and 0.01489 and 0.01881 and 0.04016 and 0.03375 and 0.04497 and 0.01194 and 0.01167
same,"PR8 M2 gene expression qPCR, ave",A/PR/8/34 virus [6]; [9],0.0246
same,"PR8 PB1 gene expression qPCR, ave",A/PR/8/34 virus [6]; [9],0.01874
same,"PR8 PB2 gene expression qPCR, ave",A/PR/8/34 virus [6]; [9],0.02588
same,"PR8 M2 gene expression qPCR, individual replicates",A/PR/8/34 virus [6]; [10],0.01123 and 0.02732 and 0.01583 and 0.02218 and 0.04353 and 0.0372 and 0.04279 and 0.01139 and 0.009915
same,"PR8 PB1 gene expression qPCR, individual replicates",A/PR/8/34 virus [6]; [10],0.01046 and 0.01271 and 0.006702 and 0.01001 and 0.03897 and 0.03125 and 0.03696 and 0.01163 and 0.009984
same,"PR8 PB2 gene expression qPCR, individual replicates",A/PR/8/34 virus [6]; [10],0.01333 and 0.02659 and 0.01745 and 0.02138 and 0.03944 and 0.03441 and 0.05711 and 0.01315 and 0.01011
same,relative mRNA level of Nqo1 compared with 5-treated cells,[7],significantly higher
same,"NQO1 Canis lupus mRNA, ave",[7]; virus + (PR8),1.527
same,"NQO1 Canis lupus mRNA, individual replicates",[7]; virus + (PR8),1.793 and 1.729 and 1.393 and 1.933 and 1.0008 and 1.009 and 1.147 and 1.683 and 2.053
same,"NQO1 Canis lupus mRNA, ave",[7]; virus -,1.333
same,"NQO1 Canis lupus mRNA, individual replicates",[7]; virus -,1.179 and 1.391 and 1.475 and 1.419 and 1.382 and 1.189 and 1.372 and 1.36 and 1.235
same,relative mRNA level of Nqo1 compared with DMSO,"[7]; without A/PR/8/34 virus, 12.5 μM, 24 h",significantly upregulated
same,"viral titer of culture media, ave",A/PR/8/34 virus [8]; 12h,24444.4
same,"viral titer of culture media, ave",A/PR/8/34 virus [8]; 48h,41111.1
same,"viral titer of culture media, ave",A/PR/8/34 virus [8]; 72h,58888.9
